{
  "source": "patent US7977362B2",
  "about": "“Alpha-(N-benzenesulfonamido)cycloalkyl derivatives” (Bristol-Myers Squibb Company, priority 2009, dated 2011)",
  "data": [
    {"system": "Aβ formation (γ-secretase) in H4 cells stably transfected to overexpress the HPLAP-APP fusion protein", "experiment": "In vitro assay based on the inhibition of Aβ formation in cultured cells", "format": "cell-based, human", "conditions": "Homo sapiens, 18 h, H4 cells overexpressing HPLAP-APP, 18 hrs incubation at 37° C., Aβ in supernatant by time-resolved fluorescence; class symbols", "method": "(§1) Cultured human cell lines, such as HEK293 and H4 cells, which express APP and γ-secretase activity or transfected derivative cell lines that overexpress wild-type APP, mutant APP, or APP fusion proteins will secrete Aβ peptides into the culture media that can be quantified as previously outlined (Dovey, H. et al., J. Neurochem., 76:173-181 (2001)). The incubation of these cultured cells with γ-secretase inhibitors decreases the production of Aβ peptides. For instance, H4 cells stably transfected to overexpress the HPLAP-APP fusion protein described above were grown as above, detached, and adjusted to 2×10^5 cells/ml. 100 μl of the resulting suspension was then added to each well of a 96-well plate. After 4 hrs, the media was removed and replaced with 100 μl serum-free media containing various dilutions of the test compound. Plates were then incubated for 18 hrs at 37° C. and a 100 μl aliquot of the tissue culture supernatant was removed for determination of Aβ levels using time-resolved fluorescence of the homogenous sample as outlined above. Alternately, the other methods described above for Aβ determination could be used. The extent of Aβ inhibition was used to calculate the IC50 value for the test compound.\n(§2) In the table, an inhibitory concentration (IC50) of less than or equal to 50 nM is represented by +++; between 50 nM and 500 nM by ++; between 500 nM and 5000 nM by +.", "units": {"IC50": "nM"}, "values": [
      {"smiles": "CC(C)(O)[C@@H]1CCCC[C@H]1N(Cc1ccc(-c2ncco2)cc1F)S(=O)(=O)c1ccc(Cl)cc1", "note": "[Compound 23, 4-Chloro-N-(2-fluoro-4-(oxazol-2-yl)benzyl)-N-((1R,2R)-2-(2-hydroxypropan-2-yl)cyclohexyl)benzenesulfonamide]", "IC50": "500 to 5000"},
      {"smiles": "O=S(=O)(c1ccc(C(F)(F)F)nc1)N(Cc1cc(F)c(-c2ncon2)cc1F)[C@@H]1CCCC[C@H]1CO", "note": "[Compound 26, N-(2,5-Difluoro-4-(1,2,4-oxadiazol-3-yl)benzyl)-N-((1R,2R)-2-(hydroxymethyl)cyclohexyl)-6-(trifluoromethyl)pyridine-3-sulfonamide]", "IC50": "≤ 50"},
      {"smiles": "O=S(=O)(c1ccc(Cl)cc1)N(Cc1ccc(Br)cc1)C1CC2CCC1C2O", "note": "(stereo not shown) [Compound 33, N-(4-Bromobenzyl)-N-(7-hydroxybicyclo[2.2.1]heptan-2-yl)-4-chlorobenzenesulfonamide]", "IC50": "500 to 5000"},
      {"smiles": "O=S(=O)(c1ccc(Cl)cc1)N(Cc1ccc(-c2ncco2)cc1)C1CC2CCC1C2O", "note": "(stereo not shown) [Compound 34, N-(4-(Oxazol-2-yl)benzyl)-N-(7-hydroxybicyclo[2.2.1]heptan-2-yl)-4-chlorobenzenesulfonamide]", "IC50": "500 to 5000"},
      {"smiles": "O=S(=O)(c1ccc(Cl)cc1)N(Cc1ccc(-c2ncon2)cc1)C1(CO)CCCCC1", "note": "[Compound 37, N-(4-(1,2,4-Oxadiazol-3-yl)benzyl)-4-chloro-N-(1-(hydroxymethyl)cyclohexyl)benzenesulfonamide]", "IC50": "500 to 5000"}
    ]},
    {"system": "Aβ formation (γ-secretase) in H4 cells stably transfected to overexpress the HPLAP-APP fusion protein", "experiment": "In vitro assay based on the inhibition of Aβ formation in cultured cells", "format": "cell-based, human", "conditions": "Homo sapiens, 18 h, H4 cells overexpressing HPLAP-APP, 18 hrs incubation at 37° C., Aβ in supernatant by time-resolved fluorescence; numeric values", "method": "as §1, §2", "units": {"IC50": "nM"}, "values": [
      {"smiles": "O=S(=O)(c1ccc(Cl)cc1)N(Cc1ccc(-c2ncon2)cc1)C1CC2CCC1C2O", "note": "(stereo not shown) [Compound 35, N-(4-(1,2,4-Oxadiazol-3-yl)benzyl)-N-(7-hydroxybicyclo[2.2.1]heptan-2-yl)-4-chlorobenzenesulfonamide]", "IC50": 3240},
      {"smiles": "O=S(=O)(c1ccc(Cl)cc1)N(Cc1ccc(-c2ncco2)cc1)C1(CO)CCCCC1", "note": "[Compound 36, 4-Chloro-N-(1-(hydroxymethyl)cyclohexyl)-N-(4-(oxazol-2-yl)benzyl)benzenesulfonamide]", "IC50": 346}
    ]}
  ]
}
